According to ChEMBL document CHEMBL1201862, “PubChem BioAssay data set” (2004):
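Grown in 96-well plates, cells were treated for 48 hours with each compound at five concentrations. Insufficient inhibition: endpoint recorded as highest concentration tested. The concentration for 50% growth inhibition is given as GI50.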 The source made the active and inactive calls. No stated cut-off is given here; in the data, active = GI50 up to about 1.1 µM and inactive = higher.

What was measured:
Test in all cases: growth of human tumour cells (NCI), 48 h
TK-10 = tested on: TK-10
SK-MEL-5 = tested on: SK-MEL-5
OVCAR-3 = tested on: OVCAR-3
SK-MEL-2 = tested on: SK-MEL-2
SNB-75 = tested on: SNB-75
NCI-H23 = tested on: NCI-H23
HOP-62 = tested on: HOP-62
SK-OV-3 = tested on: SK-OV-3
UO-31 = tested on: UO-31
IGROV-1 = tested on: IGROV-1
SNB-19 = tested on: SNB-19
NCI-H460 = tested on: NCI-H460
U-251 = tested on: U-251
HOP-92 = tested on: HOP-92
COLO 205 = tested on: COLO 205
SF-268 = tested on: SF-268
K562 = tested on: K562
SR = tested on: SR
CAKI-1 = tested on: CAKI-1
HCC 2998 = tested on: HCC 2998

Measured: GI50

O=C1C(Cl)N(c2ccc(Cl)cc2Cl)C1c1c[nH]c2ccccc12 (stereo not drawn)
inactive: TK-10 > 100 µM | SK-MEL-5 > 100 µM | OVCAR-3 78.3 µM | SK-MEL-2 > 100 µM | SNB-75 6.49 µM | NCI-H23 92.3 µM | HOP-62 > 100 µM | SK-OV-3 > 100 µM | UO-31 4.75 µM | IGROV-1 > 100 µM | SNB-19 6.01 µM | NCI-H460 > 100 µM | U-251 > 100 µM | HOP-92 44.5 µM | COLO 205 > 100 µM | SF-268 > 100 µM | K562 > 100 µM | SR 59.8 µM

CCOC(=O)C(NC(C)=O)(Nc1ccc(F)cc1)C(F)(F)F (stereo not drawn)
inactive: TK-10 > 100 µM | SK-MEL-5 3.03 µM | OVCAR-3 > 100 µM | SK-MEL-2 > 100 µM | SNB-75 > 100 µM | CAKI-1 > 100 µM | NCI-H23 > 100 µM | HCC 2998 5.18 µM | SK-OV-3 > 100 µM | UO-31 34.8 µM | IGROV-1 90.8 µM | SNB-19 > 100 µM | NCI-H460 7.21 µM | U-251 16.5 µM | HOP-92 > 100 µM | COLO 205 > 100 µM | SF-268 > 100 µM | K562 2.61 µM | SR 24.8 µM

CC(C)(C)C1(c2ccc(C3(c4ccccc4)Oc4ccccc4S3)[nH]2)Oc2ccccc2S1 (stereo not drawn)
inactive: TK-10 > 100 µM | SK-MEL-5 > 100 µM | OVCAR-3 > 100 µM | SK-MEL-2 > 100 µM | CAKI-1 > 100 µM | NCI-H23 > 100 µM | HCC 2998 > 100 µM | HOP-62 > 100 µM | SK-OV-3 > 100 µM | UO-31 90.4 µM | IGROV-1 > 100 µM | SNB-19 > 100 µM | NCI-H460 > 100 µM | U-251 > 100 µM | HOP-92 26.8 µM | SF-268 > 100 µM | K562 > 100 µM

Cn1cnc(/C=C/C#N)c1
inactive: TK-10 > 100 µM | SK-MEL-5 > 100 µM | OVCAR-3 > 100 µM | SK-MEL-2 > 100 µM | SNB-75 > 100 µM | CAKI-1 > 100 µM | NCI-H23 > 100 µM | HCC 2998 > 100 µM | HOP-62 > 100 µM | SK-OV-3 > 100 µM | UO-31 > 100 µM | IGROV-1 > 100 µM | SNB-19 > 100 µM | NCI-H460 > 100 µM | U-251 > 100 µM | HOP-92 > 100 µM | COLO 205 > 100 µM | SF-268 > 100 µM | K562 > 100 µM | SR > 100 µM

COc1cccc(NC(=O)N/C(=C/c2ccc(N(CCC#N)CCC#N)cc2)NC(=O)c2cc([N+](=O)[O-])ccc2Cl)c1
inactive: TK-10 > 100 µM | SK-MEL-5 > 100 µM | OVCAR-3 > 100 µM | SK-MEL-2 > 100 µM | CAKI-1 > 100 µM | NCI-H23 > 100 µM | HOP-62 > 100 µM | SK-OV-3 > 100 µM | UO-31 > 100 µM | IGROV-1 > 100 µM | SNB-19 > 100 µM | U-251 > 100 µM | HOP-92 > 100 µM | COLO 205 > 100 µM | SF-268 > 100 µM | K562 > 100 µM | SR 10.1 µM

COc1cc2c(cc1OC)C1Cc3sccc3CN1CC2 (stereo not drawn)
inactive: TK-10 > 100 µM | SK-MEL-5 > 100 µM | OVCAR-3 > 100 µM | SK-MEL-2 > 100 µM | SNB-75 > 100 µM | CAKI-1 > 100 µM | NCI-H23 > 100 µM | HCC 2998 > 100 µM | HOP-62 > 100 µM | SK-OV-3 > 100 µM | UO-31 > 100 µM | IGROV-1 > 100 µM | SNB-19 > 100 µM | NCI-H460 > 100 µM | U-251 > 100 µM | HOP-92 76.2 µM | SF-268 > 100 µM | K562 > 100 µM | SR 88.9 µM

O=c1c(Cc2ccc(Cc3c(O)oc4ccccc4c3=O)cc2)c(O)oc2ccccc12
inactive: TK-10 > 100 µM | SK-MEL-5 > 100 µM | OVCAR-3 > 100 µM | SK-MEL-2 > 100 µM | SNB-75 > 100 µM | CAKI-1 > 100 µM | NCI-H23 > 100 µM | HCC 2998 > 100 µM | HOP-62 > 100 µM | SK-OV-3 > 100 µM | UO-31 42 µM | IGROV-1 > 100 µM | NCI-H460 > 100 µM | U-251 > 100 µM | HOP-92 > 100 µM | COLO 205 > 100 µM | SF-268 > 100 µM | K562 > 100 µM | SR > 100 µM

CCOC(=O)/C(=N/Nc1ccc(C)cc1)N1C(=S)N(C)N=C(C)C=C1S
inactive: TK-10 45.7 µM | SK-MEL-5 > 100 µM | OVCAR-3 > 100 µM | SK-MEL-2 58.1 µM | SNB-75 29.3 µM | CAKI-1 77.1 µM | NCI-H23 94.4 µM | HCC 2998 > 100 µM | SK-OV-3 55.6 µM | UO-31 > 100 µM | IGROV-1 > 100 µM | SNB-19 69.8 µM | NCI-H460 > 100 µM | U-251 24.1 µM | HOP-92 49.5 µM | COLO 205 > 100 µM | SF-268 33.8 µM | K562 > 100 µM | SR > 100 µM
